According to publication PMC7170309, “Imidazopyridine-fused [1,3]diazepinones: modulations of positions 2 to 4 and their impacts on the anti-melanoma activity” (Journal of Enzyme Inhibition and Medicinal Chemistry, 2020):

Legend:
A375 melanoma cells = experiment: Neutral red uptake (NRU) viability assay, A375; assay type: cell-based, human; details: Homo sapiens, A-375, 72 h, mean ± SD of three experiments
[1] = system: NCI-60 cancer cell line panel; experiment: NCI-60 SRB assay, whole panel; assay type: cell-based, human; details: 10 µM, 48 h
Experimental: (§1) Primary anticancer assay was performed on a panel of 60 human cancer cell lines derived from nine neoplastic diseases, in accordance with the protocol of the Drug Evaluation Branch, National Cancer Institute, Bethesda, Maryland, USA[22]. Cells were incubated with tested compounds at 10 µM for 48 h. The growth percentage was evaluated spectrophotometrically using a protein binding dye, SRB. Results for each tested compound were reported as the percent of growth of treated cells when compared to untreated control cells.
(§2) To better compare the activity profile of these two series of compounds, compounds 5 and 8 were selected and then evaluated towards a panel of sixty cancer cell lines corresponding to nine different cancer types, i.e. leukaemia, melanoma, as well as lung, colon, central nervous system, ovarian, renal, prostate and breast cancers (NCI evaluation). Indeed, it is now well established that the growth inhibitory patterns of anticancer drugs against the NCI-60 cell line panel correlated well with their modes of action. For example, compounds that bind to tubulin have similar growth inhibition patterns regardless of which site on tubulin they bind[30]. […] Compounds were tested using the sulforhodamine B (SRB) assay that provides a direct cell density index. The amount of dye incorporated by the cells increases with the increase of the total protein biomass. Cells were incubated for 48 h with compounds at 10 µM concentration, then cell growth was evaluated spectrophotometrically and presented as the percent of untreated control cells. Values of the most sensitive cell lines were compared to those obtained with JMV5038 (Figure 4, for all data see SI).

A549/ATCC = experiment: NCI-60 SRB assay, A549/ATCC (NSCLC); assay type: cell-based, human; details: 10 µM, 48 h; for G%: growth vs untreated control
Experimental: as §1, §2

EKVX = experiment: NCI-60 SRB assay, EKVX (NSCLC); assay type: cell-based, human; details: 10 µM, 48 h; for G%: growth vs untreated control
Experimental: as §1, §2

HOP-62 = experiment: NCI-60 SRB assay, HOP-62 (NSCLC); assay type: cell-based, human; details: 10 µM, 48 h; for G%: growth vs untreated control;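 as to Mean G% - G%: mean growth across the NCI-60 panel minus this line's growth with positive meaning more sensitive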
Experimental: as §1, §2

HOP-92 = experiment: NCI-60 SRB assay, HOP-92 (NSCLC); assay type: cell-based, human; details: 10 µM, 48 h; for G%: growth vs untreated control;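 as to Mean G% - G%: mean growth across the NCI-60 panel minus this line's growth with positive meaning more sensitive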
Experimental: as §1, §2

NCI-H226 = experiment: NCI-60 SRB assay, NCI-H226 (NSCLC); assay type: cell-based, human; details: 10 µM, 48 h; for G%: growth vs untreated control
Experimental: as §1, §2

NCI-H322M = experiment: NCI-60 SRB assay, NCI-H322M (NSCLC); assay type: cell-based, human; details: 10 µM, 48 h; for G%: growth vs untreated control
Experimental: as §1, §2

COLO 205 = experiment: NCI-60 SRB assay, COLO 205 (Colon Cancer); assay type: cell-based, human; details: 10 µM, 48 h; for G%: growth vs untreated control
Experimental: as §1, §2

HCC-2998 = experiment: NCI-60 SRB assay, HCC-2998 (Colon Cancer); assay type: cell-based, human; details: 10 µM, 48 h; for G%: growth vs untreated control;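 as to Mean G% - G%: mean growth across the NCI-60 panel minus this line's growth with positive meaning more sensitive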
Experimental: as §1, §2

HCT-15 = experiment: NCI-60 SRB assay, HCT-15 (Colon Cancer); assay type: cell-based, human; details: 10 µM, 48 h; for G%: growth vs untreated control
Experimental: as §1, §2

HT29 = experiment: NCI-60 SRB assay, HT29 (Colon Cancer); assay type: cell-based, human; details: 10 µM, 48 h; for G%: growth vs untreated control;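 as to Mean G% - G%: mean growth across the NCI-60 panel minus this line's growth with positive meaning more sensitive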
Experimental: as §1, §2

SNB-19 = experiment: NCI-60 SRB assay, SNB-19 (CNS Cancer); assay type: cell-based, human; details: 10 µM, 48 h; for G%: growth vs untreated control
Experimental: as §1, §2

LOX IMVI = experiment: NCI-60 SRB assay, LOX IMVI (Melanoma); assay type: cell-based, human; details: 10 µM, 48 h; for G%: growth vs untreated control
Experimental: as §1, §2

M14 = experiment: NCI-60 SRB assay, M14 (Melanoma); assay type: cell-based, human; details: 10 µM, 48 h; for G%: growth vs untreated control
Experimental: as §1, §2

MDA-MB-435 = experiment: NCI-60 SRB assay, MDA-MB-435 (Melanoma); assay type: cell-based, human; details: 48 h; for Mean G% - G% / G%: MDA-MB-435, 10 µM, SRB; for G%: growth vs untreated control
Experimental: as §1, §2

SK-MEL-5 = experiment: NCI-60 SRB assay, SK-MEL-5 (Melanoma); assay type: cell-based, human; details: 10 µM, 48 h; for G%: growth vs untreated control
Experimental: as §1, §2

RXF 393 = experiment: NCI-60 SRB assay, RXF 393 (Renal Cancer); assay type: cell-based, human; details: 10 µM, 48 h; for G%: growth vs untreated control
Experimental: as §1, §2

TK-10 = experiment: NCI-60 SRB assay, TK-10 (Renal Cancer); assay type: cell-based, human; details: 10 µM, 48 h; for G%: growth vs untreated control
Experimental: as §1, §2

UO-31 = experiment: NCI-60 SRB assay, UO-31 (Renal Cancer); assay type: cell-based, human; details: 10 µM, 48 h; for G%: growth vs untreated control
Experimental: as §1, §2

MCF7 = experiment: NCI-60 SRB assay, MCF7 (Breast Cancer); assay type: cell-based, human; details: 10 µM, 48 h; for G%: growth vs untreated control
Experimental: as §1, §2

BT-549 = experiment: NCI-60 SRB assay, BT-549 (Breast Cancer); assay type: cell-based, human; details: 10 µM, 48 h; for G%: growth vs untreated control
Experimental: as §1, §2

MDA-MB-468 = experiment: NCI-60 SRB assay, MDA-MB-468 (Breast Cancer); assay type: cell-based, human; details: 10 µM, 48 h; for G%: growth vs untreated control
Experimental: as §1, §2

## C[C@@H]1NC(c2ccc(N=[N+]=[N-])cc2)=Nc2nc3ccccn3c2C1=O [Compound 5, (4S)-4-methyl-2-(4-azidophenyl)-3,4-dihydro-5H-pyrido[1’,2’:1,2]imidazo[4,5-d][1,3]diazepin-5-one]
A375 melanoma cells
  IC50: 7.13 ± 0.51 µM
[1]
  Mean G% (mean growth over the panel): 85,26%
A549/ATCC
  Mean G% - G%: -3,81%
  G%: 89,07%
EKVX
  Mean G% - G%: 3,45%
  G%: 81,81%
HOP-62
  Mean G% - G%: 6,31%
  G%: 78,95%
HOP-92
  Mean G% - G%: -17,00%
  G%: 102,26%
NCI-H226
  Mean G% - G%: -3,88%
  G%: 89,14%
NCI-H322M
  Mean G% - G%: -10,63%
  G%: 95,89%
COLO 205
  Mean G% - G%: 5,95%
  G%: 79,31%
HCC-2998
  Mean G% - G%: 3,82%
  G%: 81,44%
HCT-15
  Mean G% - G%: 16,87%
  G%: 68,39%
HT29
  Mean G% - G%: 10,46%
  G%: 74,80%
SNB-19
  Mean G% - G%: -4,44%
  G%: 89,70%
LOX IMVI
  Mean G% - G%: 4,81%
  G%: 80,45%
M14
  Mean G% - G%: 3,28%
  G%: 81,98%
MDA-MB-435; Homo sapiens, MDA-MB-435, NCI-60 SRB, read-out: growth inhibition percentage
  inhibition at 10 µM: 87%
MDA-MB-435
  Mean G% - G%: 72,64%
  G%: 12,62%
SK-MEL-5
  Mean G% - G%: 14,40%
  G%: 70,86%
RXF 393
  Mean G% - G%: -1,17%
  G%: 86,43%
TK-10
  Mean G% - G%: -48,01%
  G%: 133,27%
UO-31
  Mean G% - G%: 15,67%
  G%: 69,59%
MCF7
  Mean G% - G%: 26,64%
  G%: 58,62%
BT-549
  Mean G% - G%: -10,11%
  G%: 95,37%
MDA-MB-468
  Mean G% - G%: 11,88%
  G%: 73,38%
other
  melting point: 235 to 236 °C (dec.)

## [N-]=[N+]=NCCCC[C@@H]1NC(c2ccc(Br)cc2)=Nc2nc3ccccn3c2C1=O [Compound 16, (4S)-4-(4-azidobutyl)-2-(4-bromophenyl)-3,4-dihydro-5H-pyrido[1’,2’:1,2]imidazo[4,5-d][1,3]diazepin-5-one]
A375 melanoma cells
  IC50: 3.68 ± 0.63 µM
[1]
  Mean G% (mean growth over the panel): 91.77%
A549/ATCC
  Mean G% - G%: 16,61%
  G%: 75,16%
EKVX
  Mean G% - G%: 12,19%
  G%: 79,58%
HOP-62
  Mean G% - G%: 14,42%
  G%: 77,35%
HOP-92
  Mean G% - G%: -11,05%
  G%: 102,82%
NCI-H226
  Mean G% - G%: 3,58%
  G%: 88,19%
NCI-H322M
  Mean G% - G%: 0,41%
  G%: 91,36%
COLO 205
  Mean G% - G%: -15,42%
  G%: 107,19%
HCC-2998
  Mean G% - G%: -20,61%
  G%: 112,38%
HCT-15
  Mean G% - G%: -6,56%
  G%: 98,33%
HT29
  Mean G% - G%: -14,13%
  G%: 105,90%
SNB-19
  Mean G% - G%: -3,35%
  G%: 95,12%
LOX IMVI
  Mean G% - G%: 5,56%
  G%: 86,21%
M14
  Mean G% - G%: -14,11%
  G%: 105,88%
MDA-MB-435
  Mean G% - G%: -13,77%
  G%: 105,54%
SK-MEL-5
  Mean G% - G%: 3,83%
  G%: 87,94%
RXF 393
  Mean G% - G%: 10,83%
  G%: 80,94%
TK-10
  Mean G% - G%: -38,14%
  G%: 129,91%
UO-31
  Mean G% - G%: 27,99%
  G%: 63,78%
MCF7
  Mean G% - G%: 11,80%
  G%: 79,97%
BT-549
  Mean G% - G%: -13,82%
  G%: 105,59%
MDA-MB-468
  Mean G% - G%: -6,46%
  G%: 98,23%
other
  melting point: 127 to 128 °C
